Measured values as given in US8377640B2, “Diagnostic screens for Alzheimer's disease” (ISIS Innovation Ltd., priority 2001, dated 2013).
“And” between values parts separate entries of the source, which are not always exact repeats. Equal entries are not always repeated.

Legend:
[1] = test system: cultured lymphocytes; test: MTT survival assay of PHA-activated lymphocyte cultures, treated versus control; type: cell-based, human
Procedure: In the second set of experiments (53 subjects) after an initial 48 hours incubation (as above) four separate cultures were set up. Control cultures were left without any treatment, one set of cultures was treated with 100 ng/ml rapamycin, the third set was treated with 1 μM doxorubicin while the fourth set was treated with 120 μM H2O2. Doxorubicin induces DNA damage, leading to arrest at G2/M, rather than G1/S. H2O2 treatment produces oxidative stress, leading to a reversible and temporary cell cycle arrest at G1/S.
After 20 hours of incubation a 4 hour long MTT survival assay (Chemicon International Ltd) was set up. Results were read using a microplate reader (570 filter; 630 reference filter). The ratio between cell numbers in treated cultures versus controls was expressed as percent.

[2] = test system: cultured lymphocytes; test: Relative lengthening of the G1 phase (BrdU incorporation, FACS) in PHA-activated lymphocyte cultures treated with rapamycin; type: cell-based, human; conditions: 100 ng/ml rapamycin; for dG1: relative lengthening of the G1 phase of the cell cycle under Rapamycin effect: 24 h; for Mean (dG1): group mean
Procedure: A first set of experiments was carried out on 49 subjects (Table 1A), whilst a second set of experiments was carried out on 55 subjects (Table 1B). In the first set of experiments (49 subjects) two parallel lymphocyte cultures were set up from every individual in RPMI medium supplemented with 10% FCS at a concentration of 1×10^6 cells per 1 ml of culture media. Phytohaemaglutinin (PHA) was added to the cultures at a final concentration of 22 μg/ml to activate the lymphocytes. Cultures were incubated for 48 hours at 37° C. in a humidified atmosphere containing 5% CO2. After 48 hours incubation one culture was treated with 100 ng/ml rapamycin, while the other untreated culture was kept as a control. After a further 23 hours incubation BrdU was added in a concentration of 10 μg/ml to all cultures. After another hour cultures were ‘collected’ and fixed in 70% ice-cold ethanol. BrdU incorporation was assessed using immunohistochemistry followed by FACS analysis. The proportion of cells in various phases of the cell cycle was determined and data transformation performed to obtain the relative lengthening of the G1 phase (FIG. 1).
The calculations (relative lengthening of the G1 phase of the cell cycle in treated cultures relative to control cultures) were based on the assumptions that cells were in the exponential phase of proliferation and that the growth fraction in the cultures (ratio of dividing cells versus quiescent cells) was 1.0 (5). It was also assumed that rapamycin only altered the length of the G1 phase (19). Based on these assumptions the relative lengthening of the G1 phase was calculated using the formula: RL=100f-100 (expressed in percent). The ratio of the G1 time in treated versus control cultures: f=TG1tr/TG1c=[1n2−1n(2−G1tr)][1n(2−G1c)]/[1n(2−G1tr)][1n2−1n(2−G1c)] (5)

SMILES: COc1cccc2c1C(=O)c1c(O)c3c(c(O)c1C2=O)C[C@@](O)(C(=O)CO)C[C@@H]3O[C@H]1C[C@H](N)[C@H](O)[C@H](C)O1 [Doxorubicin, doxorubicin]
- Cell numbers after treatment (treated versus control cultures) ([1]; 1 μM doxorubicin, 24 h, comparison between patient groups): did not result in significant differences between patient groups

SMILES: OO [H2O2]
- Cell numbers after treatment (treated versus control cultures) ([1]; 120 μM H2O2, 24 h, AD, preAD and possAD patients versus control subjects): significantly higher cell numbers than control subjects

SMILES: CO[C@H]1C[C@@H]2CC[C@@H](C)[C@@](O)(O2)C(=O)C(=O)N2CCCC[C@H]2C(=O)O[C@H]([C@H](C)C[C@@H]2CC[C@@H](O)[C@H](OC)C2)CC(=O)[C@H](C)/C=C(\C)[C@@H](O)[C@@H](OC)C(=O)[C@H](C)C[C@H](C)/C=C/C=C/C=C/1C [rapamycin]
- dG1: relative lengthening of the G1 phase of the cell cycle under Rapamycin effect ([2]; lymphocytes of individual patients, diagnosis AD (probable AD, NINCDS)): 44.03% and 97.07% and 82.67% and 62.12% and 73.01% and 47.91% and 53.63% and 0% and 27%
- dG1: relative lengthening of the G1 phase of the cell cycle under Rapamycin effect ([2]; lymphocytes of individual patients, diagnosis ADM): 64.28% and 39.2% and 95.23% and 46.31% and 59.49% and 51.81% and 51.62%
- dG1: relative lengthening of the G1 phase of the cell cycle under Rapamycin effect ([2]; lymphocytes of individual patients, diagnosis DNOS): 31.64% and 69.07% and 97.27%
- dG1: relative lengthening of the G1 phase of the cell cycle under Rapamycin effect ([2]; lymphocytes of individual patients, diagnosis possAD): 56.77% and 60.1% and 98.1%
- dG1: relative lengthening of the G1 phase of the cell cycle under Rapamycin effect ([2]; lymphocytes of individual subjects, diagnosis Control): 51.69% and 64.1% and 40.07% and 114.1% and 119.8% and 50.04% and 177.8% and 62.81% and 54.56% and 162.7% and 97.33% and 46.02% and 110.8% and 140.6%
- dG1: relative lengthening of the G1 phase of the cell cycle under Rapamycin effect ([2]; lymphocytes of individual subjects, diagnosis preAD): 0% (3×) and 26.1% and 36.18% and 54.46% and 39.2% and 72.58% and 44.49% and 31.37% and 25.47% and 35.02% and 42.1%
- Mean (dG1) ([2]; AD, n=9): 54.1602%
- Mean (dG1) ([2]; ADM, n=7): 58.2765%
- Mean (dG1) ([2]; CONTROL, n=14): 92.3135%
- Mean (dG1) ([2]; DNOS, n=3): 65.9933%
- Mean (dG1) ([2]; POSSAD, n=3): 71.6584%
- Mean (dG1) ([2]; PREAD, n=13): 31.3039%
- Mean dG1 by ApoE4 ([2]; subjects with 0 ApoE4 alleles, n=28): 61.1186%
- Mean dG1 by ApoE4 ([2]; subjects with 1 ApoE4 allele, n=19): 63.0025%
- Mean dG1 by ApoE4 ([2]; subjects with 2 ApoE4 alleles, n=2): 49.6519%
